{"source": "ChEMBL document CHEMBL5465560", "about": "“Selectivity Literature for EUbOPEN Chemogenomic Library” (2024)", "key": {"[1]": {"target": "Calcium/calmodulin-dependent protein kinase type 1D (Homo sapiens) (UniProt Q8IU85)", "sequence (Q8IU85 whole entry, looked up)": "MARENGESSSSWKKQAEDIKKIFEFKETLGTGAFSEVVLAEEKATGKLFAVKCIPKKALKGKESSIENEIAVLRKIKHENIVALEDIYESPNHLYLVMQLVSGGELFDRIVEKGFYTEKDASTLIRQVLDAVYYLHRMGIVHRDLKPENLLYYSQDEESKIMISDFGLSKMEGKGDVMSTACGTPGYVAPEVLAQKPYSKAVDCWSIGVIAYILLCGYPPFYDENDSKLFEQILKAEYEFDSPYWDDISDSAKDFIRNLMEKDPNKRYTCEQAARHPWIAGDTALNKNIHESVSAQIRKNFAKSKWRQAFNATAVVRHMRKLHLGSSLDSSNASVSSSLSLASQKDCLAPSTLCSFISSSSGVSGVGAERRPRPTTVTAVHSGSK", "assay": "Selectivity interaction (KinomeScan (DiscoverX)) EUB0000229b CAMK1D", "conditions": "at 10 µM"}, "[2]": {"target": "T1, Serine/threonine-protein kinase 17B (Homo sapiens) (UniProt O94768)", "T1 sequence (whole entry)": "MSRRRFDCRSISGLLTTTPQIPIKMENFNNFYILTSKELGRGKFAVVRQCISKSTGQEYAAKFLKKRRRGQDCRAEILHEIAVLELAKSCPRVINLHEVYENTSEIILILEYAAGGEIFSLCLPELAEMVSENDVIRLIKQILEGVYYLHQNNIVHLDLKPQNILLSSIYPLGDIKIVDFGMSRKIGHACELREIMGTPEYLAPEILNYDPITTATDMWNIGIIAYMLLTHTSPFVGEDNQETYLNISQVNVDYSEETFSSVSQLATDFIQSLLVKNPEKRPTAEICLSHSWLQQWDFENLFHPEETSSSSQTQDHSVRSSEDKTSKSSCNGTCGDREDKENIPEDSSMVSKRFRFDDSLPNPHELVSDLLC", "assay": "Selectivity interaction (KinomeScan (DiscoverX)) EUB0000595a STK17B", "conditions": "at 10 µM"}, "[3]": {"target": "T2, Serine/threonine-protein kinase LATS2 (Homo sapiens) (UniProt Q9NRM7)", "T2 sequence (whole entry)": "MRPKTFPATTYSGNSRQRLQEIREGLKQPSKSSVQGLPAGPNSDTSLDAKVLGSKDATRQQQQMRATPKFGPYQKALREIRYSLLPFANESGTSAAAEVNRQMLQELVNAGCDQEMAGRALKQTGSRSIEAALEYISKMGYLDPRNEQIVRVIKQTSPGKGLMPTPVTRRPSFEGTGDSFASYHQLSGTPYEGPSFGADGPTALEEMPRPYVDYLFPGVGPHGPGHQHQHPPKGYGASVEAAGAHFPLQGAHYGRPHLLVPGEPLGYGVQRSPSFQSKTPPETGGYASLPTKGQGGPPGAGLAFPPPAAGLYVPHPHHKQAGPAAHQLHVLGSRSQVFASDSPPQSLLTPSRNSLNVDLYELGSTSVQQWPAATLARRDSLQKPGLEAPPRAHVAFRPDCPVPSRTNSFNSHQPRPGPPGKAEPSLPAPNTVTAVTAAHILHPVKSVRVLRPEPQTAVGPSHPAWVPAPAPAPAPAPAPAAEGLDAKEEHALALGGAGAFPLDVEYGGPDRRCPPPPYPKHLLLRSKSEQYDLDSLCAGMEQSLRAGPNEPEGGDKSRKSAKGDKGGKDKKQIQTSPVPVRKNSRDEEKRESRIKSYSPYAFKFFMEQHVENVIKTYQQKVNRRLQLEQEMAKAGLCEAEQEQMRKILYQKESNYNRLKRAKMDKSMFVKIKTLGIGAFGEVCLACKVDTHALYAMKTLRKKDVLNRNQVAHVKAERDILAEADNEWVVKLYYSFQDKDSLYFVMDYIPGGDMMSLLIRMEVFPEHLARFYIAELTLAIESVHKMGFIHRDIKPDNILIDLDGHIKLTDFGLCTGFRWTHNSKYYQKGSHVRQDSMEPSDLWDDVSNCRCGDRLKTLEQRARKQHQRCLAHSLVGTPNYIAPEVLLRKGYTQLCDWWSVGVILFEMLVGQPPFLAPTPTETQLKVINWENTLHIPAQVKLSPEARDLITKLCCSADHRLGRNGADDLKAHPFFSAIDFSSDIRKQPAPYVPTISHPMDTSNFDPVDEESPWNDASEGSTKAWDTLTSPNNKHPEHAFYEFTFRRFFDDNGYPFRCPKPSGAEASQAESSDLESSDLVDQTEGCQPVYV", "assay": "Selectivity interaction (KinomeScan (DiscoverX)) EUB0001079a LATS2", "conditions": "at 1 µM"}, "[4]": {"target": "Epidermal growth factor receptor (Homo sapiens, UniProt P00533)", "conditions": "at 10 µM"}, "[5]": {"target": "Homeodomain-interacting protein kinase 1 (Homo sapiens, UniProt Q86Z02)", "sequence (Q86Z02 whole entry, looked up)": "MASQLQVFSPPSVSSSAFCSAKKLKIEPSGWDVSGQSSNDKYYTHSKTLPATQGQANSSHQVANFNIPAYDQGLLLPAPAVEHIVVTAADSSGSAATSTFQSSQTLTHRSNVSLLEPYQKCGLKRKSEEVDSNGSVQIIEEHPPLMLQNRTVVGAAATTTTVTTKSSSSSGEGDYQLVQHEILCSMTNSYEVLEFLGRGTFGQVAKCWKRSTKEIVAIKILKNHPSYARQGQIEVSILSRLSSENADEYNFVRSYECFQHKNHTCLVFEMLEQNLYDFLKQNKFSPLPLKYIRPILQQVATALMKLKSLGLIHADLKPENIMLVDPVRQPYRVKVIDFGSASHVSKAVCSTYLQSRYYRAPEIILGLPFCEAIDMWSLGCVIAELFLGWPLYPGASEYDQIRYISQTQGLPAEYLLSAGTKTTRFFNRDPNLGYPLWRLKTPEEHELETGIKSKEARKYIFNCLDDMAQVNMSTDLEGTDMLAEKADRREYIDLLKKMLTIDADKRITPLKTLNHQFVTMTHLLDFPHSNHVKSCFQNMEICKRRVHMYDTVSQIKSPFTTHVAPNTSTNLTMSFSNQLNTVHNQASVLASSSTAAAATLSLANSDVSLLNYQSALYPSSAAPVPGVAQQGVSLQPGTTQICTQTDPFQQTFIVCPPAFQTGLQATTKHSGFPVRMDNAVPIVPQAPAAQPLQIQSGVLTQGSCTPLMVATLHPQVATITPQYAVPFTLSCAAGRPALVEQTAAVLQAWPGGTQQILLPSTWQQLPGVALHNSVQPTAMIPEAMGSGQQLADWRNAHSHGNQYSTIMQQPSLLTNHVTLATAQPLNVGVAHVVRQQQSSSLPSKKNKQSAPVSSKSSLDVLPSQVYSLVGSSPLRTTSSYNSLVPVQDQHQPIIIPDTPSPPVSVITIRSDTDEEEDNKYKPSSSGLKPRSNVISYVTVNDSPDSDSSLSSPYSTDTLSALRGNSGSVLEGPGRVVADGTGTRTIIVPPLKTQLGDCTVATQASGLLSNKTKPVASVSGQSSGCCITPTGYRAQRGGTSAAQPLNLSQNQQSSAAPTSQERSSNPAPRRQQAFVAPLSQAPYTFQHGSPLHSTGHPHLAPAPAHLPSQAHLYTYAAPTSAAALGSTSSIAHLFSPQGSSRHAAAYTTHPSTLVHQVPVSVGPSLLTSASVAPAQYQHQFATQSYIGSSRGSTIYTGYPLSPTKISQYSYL", "conditions": "at 10 µM"}, "[6]": {"target": "T3, Insulin-like growth factor 1 receptor (Homo sapiens, UniProt P08069)", "T3 sequence (P08069 31-736 limits assumed)": "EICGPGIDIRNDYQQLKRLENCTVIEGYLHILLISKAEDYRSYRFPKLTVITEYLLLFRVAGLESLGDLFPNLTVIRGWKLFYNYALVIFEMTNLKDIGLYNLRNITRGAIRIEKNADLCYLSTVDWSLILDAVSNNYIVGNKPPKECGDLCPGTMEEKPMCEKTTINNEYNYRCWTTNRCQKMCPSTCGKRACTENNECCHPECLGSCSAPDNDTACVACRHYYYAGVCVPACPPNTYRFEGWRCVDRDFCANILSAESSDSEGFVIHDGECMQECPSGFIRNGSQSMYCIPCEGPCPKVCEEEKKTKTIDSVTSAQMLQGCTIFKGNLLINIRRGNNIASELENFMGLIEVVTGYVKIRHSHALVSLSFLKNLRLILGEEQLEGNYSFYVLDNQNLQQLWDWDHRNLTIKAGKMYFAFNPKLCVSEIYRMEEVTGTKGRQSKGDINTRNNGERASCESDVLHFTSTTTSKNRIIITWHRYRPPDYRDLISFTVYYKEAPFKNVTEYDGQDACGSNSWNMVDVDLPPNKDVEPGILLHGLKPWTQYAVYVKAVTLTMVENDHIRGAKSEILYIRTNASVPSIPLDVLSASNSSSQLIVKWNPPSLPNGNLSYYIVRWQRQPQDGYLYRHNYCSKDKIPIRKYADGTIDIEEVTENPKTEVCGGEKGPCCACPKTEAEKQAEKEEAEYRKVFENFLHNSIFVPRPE", "T3 sequence (P08069 741-1367 limits assumed)": "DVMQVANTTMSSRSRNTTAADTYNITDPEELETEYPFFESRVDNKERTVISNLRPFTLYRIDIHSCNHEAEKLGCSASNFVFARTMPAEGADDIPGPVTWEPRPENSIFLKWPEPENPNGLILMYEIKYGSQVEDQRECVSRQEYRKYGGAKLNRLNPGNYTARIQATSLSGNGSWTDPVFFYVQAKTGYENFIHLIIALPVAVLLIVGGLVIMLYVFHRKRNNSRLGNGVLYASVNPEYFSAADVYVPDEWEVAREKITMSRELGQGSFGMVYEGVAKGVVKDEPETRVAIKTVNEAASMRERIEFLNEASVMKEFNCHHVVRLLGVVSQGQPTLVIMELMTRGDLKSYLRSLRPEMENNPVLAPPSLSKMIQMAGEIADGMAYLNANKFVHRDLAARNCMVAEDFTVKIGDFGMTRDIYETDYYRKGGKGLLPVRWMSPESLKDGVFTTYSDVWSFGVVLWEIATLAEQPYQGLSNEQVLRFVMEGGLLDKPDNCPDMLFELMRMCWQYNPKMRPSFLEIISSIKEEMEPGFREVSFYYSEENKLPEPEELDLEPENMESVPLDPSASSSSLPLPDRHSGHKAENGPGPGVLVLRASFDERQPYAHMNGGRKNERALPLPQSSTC", "assay": "Selectivity interaction (Upstate Kinase Profiler service (Millipore)) EUB0000056c IGF1R", "conditions": "at 1 µM"}, "[7]": {"target": "Rho-associated protein kinase 2 (Homo sapiens, UniProt O75116)", "sequence (O75116 whole entry, looked up)": "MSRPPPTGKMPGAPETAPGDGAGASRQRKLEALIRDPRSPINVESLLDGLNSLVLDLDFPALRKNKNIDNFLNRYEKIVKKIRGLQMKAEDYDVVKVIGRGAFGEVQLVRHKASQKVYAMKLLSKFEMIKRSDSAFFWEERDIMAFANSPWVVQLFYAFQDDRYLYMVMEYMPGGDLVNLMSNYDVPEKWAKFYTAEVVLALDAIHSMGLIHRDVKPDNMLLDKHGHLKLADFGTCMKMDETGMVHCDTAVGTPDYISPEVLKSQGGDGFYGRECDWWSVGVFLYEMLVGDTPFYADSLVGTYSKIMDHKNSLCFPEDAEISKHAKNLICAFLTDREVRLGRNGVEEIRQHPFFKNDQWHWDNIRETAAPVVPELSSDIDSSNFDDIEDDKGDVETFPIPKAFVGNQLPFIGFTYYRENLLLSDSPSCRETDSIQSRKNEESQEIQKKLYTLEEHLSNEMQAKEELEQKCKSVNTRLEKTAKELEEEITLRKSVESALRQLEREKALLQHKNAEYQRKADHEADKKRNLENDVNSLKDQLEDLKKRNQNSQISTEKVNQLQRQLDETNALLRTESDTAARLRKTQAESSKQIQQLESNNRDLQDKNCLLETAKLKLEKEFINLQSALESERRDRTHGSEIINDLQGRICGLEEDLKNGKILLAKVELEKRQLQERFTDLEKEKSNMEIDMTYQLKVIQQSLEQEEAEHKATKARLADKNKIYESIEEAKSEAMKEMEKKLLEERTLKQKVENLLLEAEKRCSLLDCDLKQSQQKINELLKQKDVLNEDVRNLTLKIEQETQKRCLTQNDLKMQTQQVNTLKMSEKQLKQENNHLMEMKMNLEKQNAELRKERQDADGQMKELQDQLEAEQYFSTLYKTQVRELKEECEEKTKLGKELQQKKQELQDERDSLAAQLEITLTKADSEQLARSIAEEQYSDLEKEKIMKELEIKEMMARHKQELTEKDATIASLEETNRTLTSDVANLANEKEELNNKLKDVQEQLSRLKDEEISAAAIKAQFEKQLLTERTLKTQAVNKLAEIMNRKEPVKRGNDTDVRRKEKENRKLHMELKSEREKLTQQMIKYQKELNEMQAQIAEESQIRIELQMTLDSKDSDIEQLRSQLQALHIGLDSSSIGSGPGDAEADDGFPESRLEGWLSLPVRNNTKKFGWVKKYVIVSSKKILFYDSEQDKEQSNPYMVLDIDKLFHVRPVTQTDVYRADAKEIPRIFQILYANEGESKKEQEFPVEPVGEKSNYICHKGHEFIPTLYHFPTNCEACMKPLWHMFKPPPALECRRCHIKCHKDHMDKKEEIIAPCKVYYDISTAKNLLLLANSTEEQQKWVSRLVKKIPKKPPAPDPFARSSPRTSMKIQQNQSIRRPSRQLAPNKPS", "assay": "Selectivity interaction (ProQinase) EUB0000171b ROCK2"}, "[8]": {"target": "Ribosomal protein S6 kinase alpha-4 (Homo sapiens) (UniProt O75676)", "sequence (O75676 whole entry, looked up)": "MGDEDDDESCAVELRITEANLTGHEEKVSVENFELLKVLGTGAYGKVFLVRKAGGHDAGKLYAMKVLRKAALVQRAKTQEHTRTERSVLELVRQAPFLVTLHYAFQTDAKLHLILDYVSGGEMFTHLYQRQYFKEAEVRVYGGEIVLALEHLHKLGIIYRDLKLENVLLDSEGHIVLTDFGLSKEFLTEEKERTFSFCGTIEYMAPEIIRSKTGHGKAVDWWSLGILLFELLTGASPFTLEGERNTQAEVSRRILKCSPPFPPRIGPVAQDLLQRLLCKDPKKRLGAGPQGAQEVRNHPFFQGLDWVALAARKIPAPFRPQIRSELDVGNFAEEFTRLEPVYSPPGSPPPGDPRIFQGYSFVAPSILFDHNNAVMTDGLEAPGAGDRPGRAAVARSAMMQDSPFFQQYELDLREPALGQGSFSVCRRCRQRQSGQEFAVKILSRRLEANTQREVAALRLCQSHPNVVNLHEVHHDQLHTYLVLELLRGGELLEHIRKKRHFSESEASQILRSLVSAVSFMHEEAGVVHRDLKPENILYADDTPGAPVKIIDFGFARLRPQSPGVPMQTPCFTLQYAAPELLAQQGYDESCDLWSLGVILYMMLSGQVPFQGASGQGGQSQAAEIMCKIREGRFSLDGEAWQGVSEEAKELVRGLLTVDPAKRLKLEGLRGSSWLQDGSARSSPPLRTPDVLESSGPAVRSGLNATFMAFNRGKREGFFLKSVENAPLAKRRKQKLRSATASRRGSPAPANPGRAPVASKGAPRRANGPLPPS", "assay": "Selectivity interaction (ProQinase) EUB0000171b RPS6KA4"}, "[9]": {"target": "Serine/threonine-protein kinase MARK2 (Homo sapiens) (UniProt Q7KZI7)", "assay": "Selectivity interaction (ActivX KiNativ screen (ex vivo kinase selectivity in human PBMCs)) EUB0001619a MARK2", "assay_type": "cell-based", "conditions": "PBMC, at 1 µM"}, "[10]": {"target": "T4, Activin receptor type-1B (Homo sapiens) (UniProt P36896)", "T4 sequence (whole entry)": "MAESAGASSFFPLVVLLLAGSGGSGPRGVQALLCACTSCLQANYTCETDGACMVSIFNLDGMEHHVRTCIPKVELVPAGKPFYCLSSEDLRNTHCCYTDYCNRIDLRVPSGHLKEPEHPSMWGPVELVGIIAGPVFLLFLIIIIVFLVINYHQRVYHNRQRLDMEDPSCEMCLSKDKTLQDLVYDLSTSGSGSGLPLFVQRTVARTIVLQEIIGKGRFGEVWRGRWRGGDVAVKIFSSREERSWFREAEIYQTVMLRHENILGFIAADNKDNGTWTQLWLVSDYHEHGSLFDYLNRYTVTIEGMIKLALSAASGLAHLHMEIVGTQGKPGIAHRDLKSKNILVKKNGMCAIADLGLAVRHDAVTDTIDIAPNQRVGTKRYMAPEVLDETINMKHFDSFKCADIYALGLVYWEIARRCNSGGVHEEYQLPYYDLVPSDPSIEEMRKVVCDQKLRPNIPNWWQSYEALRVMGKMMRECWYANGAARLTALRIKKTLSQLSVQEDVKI", "assay": "Selectivity interaction (SelectScreen profiling (Invitrogen)) EUB0000607a ACVR1B", "conditions": "at 2 µM"}, "[11]": {"target": "T3, Insulin-like growth factor 1 receptor", "assay": "Selectivity interaction (KinomeScan (DiscoverX)) EUB0000607a IGF1R", "conditions": "at 10 µM"}, "[12]": {"assay": "Selectivity interaction (ActivX KiNativ screen (kinase selectivity in THP-1 cell lysates)) EUB0000639a STLK6", "conditions": "Selectivity number of off-targets 5; Selectivity number of targets 283; Source Knowledge https://pubmed.ncbi.nlm.nih.gov/28498658/; at 5 µM"}, "[13]": {"target": "Ribosomal protein S6 kinase alpha-1 (Homo sapiens, UniProt Q15418)", "assay": "Selectivity interaction (ActivX KiNativ screen (kinase selectivity in THP-1 cell lysates)) EUB0000639a RPS6KA1", "assay_type": "subcellular", "conditions": "lysate, at 5 µM"}, "[14]": {"target": "Calcium/calmodulin-dependent protein kinase type II subunit beta (Homo sapiens) (UniProt Q13554)", "assay": "Selectivity interaction (ActivX KiNativ screen (kinase selectivity in THP-1 cell lysates)) EUB0000639a CAMK2B", "assay_type": "subcellular", "conditions": "lysate, at 5 µM"}}}
{"smiles": "COc1cc(N(C)c2ccnc3ccc(C(F)(F)F)cc23)cc(OC)c1OC", "values": [{"measurement": "% binding", "setting": "[1]", "value": 59, "unit": "%"}]}
{"smiles": "COCC(=O)NC/C=C/c1ccc2ncnc(Nc3ccc(Oc4ccc(C)nc4)c(C)c3)c2c1", "note": "[CP-724714]", "values": [{"measurement": "% of control", "setting": "[2]", "value": 100, "unit": "%"}]}
{"smiles": "Nc1cnc(N2CCc3cc(S(=O)(=O)Nc4c(F)cc(Cl)cc4F)cc(N4CCCC4=O)c32)nc1", "note": "[TP-020n]", "values": [{"measurement": "% of control", "setting": "[3]", "value": 100, "unit": "%"}]}
{"smiles": "Cc1cc([C@@H](C)Nc2ccccc2C(=O)O)c2nc(N3CCOCC3)cc(=O)n2c1", "note": "[AZD-6482]", "values": [{"measurement": "% of control", "setting": "[4]", "value": 96, "unit": "%"}, {"measurement": "% of control", "setting": "[5]", "value": 100, "unit": "%"}]}
{"smiles": "Cc1ccc(-c2ccc3c(ccc4sc5c(c43)NC[C@@H](C)NC5=O)n2)cn1", "values": [{"measurement": "% of inhibition", "setting": "[6]", "value": 0, "unit": "%"}]}
{"smiles": "C=CC(=O)Nc1cccc(C(=O)Nc2ccc(Nc3cc(-c4[nH]c(SC)nc4C)ccn3)cc2)c1", "values": [{"measurement": "% of control", "setting": "[7]; at 1 µM", "value": 95, "unit": "%"}, {"measurement": "% of control", "setting": "[7]; at 5 µM", "value": 75, "unit": "%"}, {"measurement": "% of control", "setting": "[8]; at 1 µM", "value": 97, "unit": "%"}, {"measurement": "% of control", "setting": "[8]; at 5 µM", "value": 94, "unit": "%"}]}
{"smiles": "N#Cc1cccc(-c2c[nH]c3ncnc(N4CCOCC4)c23)c1", "values": [{"measurement": "% of inhibition", "setting": "[9]", "value": 27, "unit": "%"}]}
{"smiles": "CNC(=O)Nc1ccc(-c2nc(N3CC4CCC(C3)O4)c3cnn(C4CCC5(CC4)OCCO5)c3n2)cc1", "values": [{"measurement": "% of inhibition", "setting": "[10]", "value": 3, "unit": "%"}, {"measurement": "% of control", "setting": "[11]", "value": 93, "unit": "%"}]}
{"smiles": "CC[C@@H]1[C@H](F)C(=O)N[C@@H]1COc1nccc2cc(C(N)=O)c(OC)cc12", "note": "[ZIMLOVISERTIB]", "values": [{"measurement": "% of inhibition", "setting": "[12]", "value": -4.2, "unit": "%"}, {"measurement": "% of inhibition", "setting": "[13]", "value": 11.7, "unit": "%"}, {"measurement": "% of inhibition", "setting": "[14]", "value": 19.6, "unit": "%"}]}
